Assay results: patent publication US4410535A, “Aza-bicyclo-benzamide derivatives and pharmaceutical compositions and use thereof” (Beecham Group Limited, priority 1980, dated 1983)

Legend:
Type in all cases: in vivo
Dopamine Receptor = test: Dopamine receptor blocking activity in the CNS: inhibition of apomorphine induced climbing in the mouse; conditions: s.c. (table footnote), apomorphine 1 mg/kg s.c. induced climbing
[1] = test system: vomiting response to apomorphine HCl; test: Anti-emetic activity in the dog (apomorphine HCl induced vomiting); conditions: Canis lupus familiaris, sc, 30 min before apomorphine HCl 0.1 mg/kg s.c.
Method: I. Anti-emetic acitivity in the dog
Compounds were administered subcutaneously 30 minutes prior to administration of a standard dose of apomorphine HCl (0.1 mg/kg subcutaneously) and the vomiting response compared to that obtained when the same animals were dosed with apomorphine HCl and vehicle only.
(§1) The tests I and II shown above for anti-emetic and CNS activity respectively were used for the comparison testing of representative Compound 1 with 4-amino-5-chloro-2-methoxy-N-(3'β-[8'-benzyl]-8-azabicyclo[3.2.1]octyl)benzamide (A'). Compound A' was chosen because of the compounds specifically disclosed in European Patent Application No. 793029978 and U.S. Pat. No. 4,273,778 it has the best anti-emetic activity and is the structurally closest compound to compound 1. Other compounds of the Examples were also submitted to tests I and II.

[2] = Therapeutic ratio for anti-emetic activity based upon CNS effects (tests I and II); conditions: relative to compound A'
Excerpt: as §1

[3] = test system: gastric motility inhibited by 6,7-ADTN; test: Gastric motility testing in the rat: reversal of the inhibitory effect of 6,7-ADTN; conditions: s.c., 10 minutes after 6,7-ADTN 1 mg/kg s.c.; conscious chronic gastric fistula rat
Method: III. Gastric Motility Testing in the rat
The compounds were tested for ability to reverse the inhibitory effect of 6,7-ADTN on gastric motility as recorded by an open tipped catheter in the conscious chronic gastric fistula rat. Administration of 1 mg/kg s.c. of 6,7-ADTN reduced basal gastric motor activity and this was reversed by the administration of 0.008 mg/kg s.c. of compound 1. administered 10 minutes after the 6,7-ADTN. […] For subcutaneous testing the compound was dissolved in water by the addition of tartaric acid (1/2 mole per mole of compound).

| Structure (SMILES) | CNS activity (ED50) (Dopamine Receptor) [mg/kg] | ED50 [1] [mg/kg] | improvement of therapeutic ratio for anti-emetic activity based upon CNS effects, compared with compound A' [2] | dose reversing the 6,7-ADTN inhibition of gastric motor activity [3] [mg/kg] |
| --- | --- | --- | --- | --- |
| COc1cc(N)c(S(C)(=O)=O)cc1C(=O)N[C@@H]1C[C@H]2CC[C@@H](C1)N2C [Compound 3, 4-Amino-2-methoxy-5-methylsulphonyl-N-[3β-(8-methyl-8-azabicyclo[3.2.1]octyl)]benzamide] | 80 | 0.5 |  |  |
| COc1cc(N)c(S(C)(=O)=O)cc1C(=O)N[C@@H]1C[C@H]2CC[C@@H](C1)N2Cc1ccccc1 [Compound 1, 4-Amino-2-methoxy-5-methylsulphonyl-N-[3-β-(8-benzyl-8-azabicyclo[3.2.1]octyl)]benzamide] | 3.5 | 0.002 | more than 300 times | 0.008 |
| COc1cc(N)c(Cl)cc1C(=O)N[C@@H]1C[C@H]2CC[C@@H](C1)N2Cc1ccccc1 [Compound A', 4-amino-5-chloro-2-methoxy-N-(3'β-[8'-benzyl]-8-azabicyclo[3.2.1]octyl)benzamide, reference compound] | 0.0029 | 0.0005 |  |  |
| CCS(=O)(=O)c1cc(C(=O)N[C@@H]2C[C@H]3CC[C@@H](C2)N3Cc2ccccc2)c(OC)cc1N [Compound 2, 4-Amino-5-ethylsulphonyl-2-methoxy N-[3-β-(8-benzyl-8azabicyclo{3,2,1}octyl)]benzamide] | 3.5 | 0.01 |  |  |
